In US6518410B2, “Sulfoquinovosylacylglycerol derivative, and use thereof as medicaments” (Toyo Suisan Kaisha, Ltd., priority 1999, dated 2003):

Experiments:
[1] = target: T1, DNA polymerase α isolated from the bovine thymus (Bos taurus, UniProt A0AAA9TD94); assay: Inhibitory effect against DNA polymerase α; type: biochemical; conditions: 0.05 U enzyme, 37° C., 60 minutes; mixture of S- and R-configurations; read-out: IC50, Inhibition Activity against DNA Polymerase α (converted)
T1 construct: isolated from the bovine thymus and purified with an antibody column; from tissue; host or cells: bovine thymus
T1 sequence (A0AAA9TD94 1-1441): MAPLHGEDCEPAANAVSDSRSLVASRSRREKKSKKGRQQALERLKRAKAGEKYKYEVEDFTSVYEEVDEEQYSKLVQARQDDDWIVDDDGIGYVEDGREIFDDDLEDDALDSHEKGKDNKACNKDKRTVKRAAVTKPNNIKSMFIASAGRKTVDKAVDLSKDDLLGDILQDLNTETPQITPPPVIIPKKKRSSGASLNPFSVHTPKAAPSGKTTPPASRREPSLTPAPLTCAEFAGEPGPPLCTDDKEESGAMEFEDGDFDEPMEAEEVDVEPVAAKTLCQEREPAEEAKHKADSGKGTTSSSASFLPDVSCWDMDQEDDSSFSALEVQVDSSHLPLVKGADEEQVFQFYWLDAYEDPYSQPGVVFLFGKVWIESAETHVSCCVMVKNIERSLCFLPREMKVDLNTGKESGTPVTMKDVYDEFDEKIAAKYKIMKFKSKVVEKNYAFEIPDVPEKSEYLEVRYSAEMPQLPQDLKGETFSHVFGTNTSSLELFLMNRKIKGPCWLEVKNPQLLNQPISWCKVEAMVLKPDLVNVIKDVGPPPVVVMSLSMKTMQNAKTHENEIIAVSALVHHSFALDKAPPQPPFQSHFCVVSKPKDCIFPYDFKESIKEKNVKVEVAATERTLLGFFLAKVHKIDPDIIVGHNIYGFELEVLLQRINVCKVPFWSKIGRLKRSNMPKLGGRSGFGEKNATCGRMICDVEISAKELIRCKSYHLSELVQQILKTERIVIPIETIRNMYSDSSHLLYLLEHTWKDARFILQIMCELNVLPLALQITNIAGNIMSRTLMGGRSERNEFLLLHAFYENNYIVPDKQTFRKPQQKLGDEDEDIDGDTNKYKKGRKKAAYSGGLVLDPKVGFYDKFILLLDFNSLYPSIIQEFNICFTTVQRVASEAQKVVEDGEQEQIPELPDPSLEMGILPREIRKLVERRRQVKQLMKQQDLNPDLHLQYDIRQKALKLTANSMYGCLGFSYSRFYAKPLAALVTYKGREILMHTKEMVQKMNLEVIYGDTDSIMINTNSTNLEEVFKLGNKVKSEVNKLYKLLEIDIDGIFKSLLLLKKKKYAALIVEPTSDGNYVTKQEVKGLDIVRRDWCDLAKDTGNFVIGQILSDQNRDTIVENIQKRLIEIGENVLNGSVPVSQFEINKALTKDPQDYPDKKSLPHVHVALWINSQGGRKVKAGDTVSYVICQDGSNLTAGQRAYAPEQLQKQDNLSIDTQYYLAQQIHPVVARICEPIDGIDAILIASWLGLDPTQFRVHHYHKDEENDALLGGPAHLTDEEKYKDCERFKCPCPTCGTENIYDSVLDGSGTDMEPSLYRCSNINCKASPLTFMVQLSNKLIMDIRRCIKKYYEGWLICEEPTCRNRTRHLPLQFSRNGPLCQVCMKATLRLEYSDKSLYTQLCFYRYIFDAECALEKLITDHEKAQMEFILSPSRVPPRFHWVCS
Description: An assay on inhibitory effect against a DNA polymerase α was carried out in the following manner.
0.05 U of a DNA polymerase α isolated from the bovine thymus and purified with an antibody column was mixed with each of compounds SQAG 1 to SQAG 14 listed in Table 1 above, each of which was dissolved in DMSO. Each mixture was added with a buffer of an inorganic salt necessary for the enzymatic reaction, [^3H]-labeled dTTP, and a compound for reaction containing a template DNA chain, and was incubated at 37° C. for 60 minutes.
After the enzymatic reaction was stopped, the resultant product was fixed on a dedicated filter to make measurement by a liquid scintillation counter. The amount of enzymatically synthesized dTTP was calculated as a radiation dose (cpm) of [^3H].

[2] = system: gastric cancer cells NUGC-3; assay: Anticancer activity against cultured gastric cancer cells (MTT assay); type: cell-based; conditions: Homo sapiens, NUGC-3, 48 hours, mixture of S- and R-configurations
Description: (§1) Colon cancer cells DLD-1 were maintained and subcultured in RPMI 1640 medium (containing 10% calf serum). Each of compounds SQAG 1, SQAG 2, SQAG 4, SQAG 6, SQAG 8, SQAG 11, SQAG 12, SQAG 13 and SQAG 14 shown in Table 1 was suspended and diluted in the medium, and then was cultivated in a 96-well plate together with the cancer cells at 3×10^3 cells/well. After the culture has been incubated for 48 hours, the MTT assay (Mosmann, T: Journal of immunological Method, 65, 55-63 (1983)) was carried out to compare viability rates.
An assay on anticancer activity against cultured gastric cancer cells was carried out in the same manner as in the assay 4 except that gastric cancer cells NUGC-3 were used instead of the colon cancer cells DLD-1.

[3] = system: Colon cancer cells DLD-1; assay: Anticancer activity against cultured colon cancer cells (MTT assay); type: cell-based; conditions: Homo sapiens, DLD-1, 48 hours, mixture of S- and R-configurations, read-out: IC50, Anti-Cancer Activity against Colon Cancer Cells
Description: An assay on anticancer activity against cultured colon cancer cells was carried out in the following manner.
as §1

[4] = system: LEW rat skin graft on ACI rats; assay: Rejection test in skin graft; type: in vivo; conditions: 10 mL of 1 mg/mL intraperitoneally daily for five days, graft taken on the seventh day
Description: Rejection test in skin graft
ACI rats and LEW rats were prepared and subjected to inhalation anesthesia of ether. After shaving the dorsum of each ACI rat, posterior lateral skin (1×1 cm) was removed to form a skin-flayed wound, and then a hemostatic treatment was performed. On the other hand, a piece of skin (1×1 cm) was obtained from the tail of each LEW rat. The donor skin was applied to the skin-flayed wound of each ACI rat and sutured with 5-0 nylon sutures. Then, gauze was applied to the surgically operated portion and a corset with a rubber bandage was further attached thereon to protect it. Such a skin transplantation operation was applied to all ten ACI rats in the same manner. Of the ten ACT rats, five rats were selected at random and classified as a control group, and the remaining five rats were classified as a test group to which test substances are to be administered. To the control group, 10 mL of physiological saline was intraperitoneally injected daily for five days after the surgery. To the test group, 10 mL solution of SQAG 9 dissolved in physiological saline at a concentration of 1 mg/mL was intraperitoneally injected daily for five days after the surgery in the same manner as in the control group.
On the seventh day after the operation, a graft was taken to prepare a tissue specimen. […]

[5] = system: responder cells (T lymphocytes) with mitomycin C treated stimulator lymphocytes; assay: Mixed lymphocytes reaction ([3H]-thymidine uptake of responder cells); type: cell-based, healthy persons; conditions: 4 days culture, then 12 hours [3H]-thymidine; FIGS. 1-4
Description: Mixed lymphocytes reaction
Lymphocytes serving as stimulator cells and responder cells were prepared from blood taken from individual healthy persons.
The responder cells were further separated from the lymphocyte cells to give T lymphocytes alone.
No treatment was applied to the responder cells. 10^6/mL of the stimulator cells were treated with 10 μg/mL of mitomycin C to stop the cell growth. Thereafter, the stimulator cells were washed with PBS (phosphate buffer saline) 4 times.
Subsequently, the responder cells were inoculated at a rate of 10^5 cells per well and then test substances (compounds SQAG 3, SQAG 5, SQAG 7, and SQAG 9 listed in Table 6 below) were added to a predetermined concentration. The reaction mixture was cultured at 37° C. for one hour. Thereafter, the stimulator cells were added at a rate of 10^5 cells per well. The mixture was cultured in a CO2 incubator at 37° C. for 4 days. After the incubation, the proliferation ability of the responder cells was quantified as follows. […] Then, the amount of [^3H]-thymidine uptake into the cells was determined by a scintillation counter.
FIGS. 1-4 show the amounts of [^3H]-thymidine uptake when SQAG 3, SQAG 5, SQAG 7, and SQAG 9 are added. […] In each of the FIGS. 1-4, the vertical axis indicates the intensity of radioactivity and the horizontal axis indicates the concentration of the test substance.

IC50 [2]	IC50 [3]	Compound	IC50 [1]	necrosis of the epidermal layer of the graft (histological observation) [4]	rats in which some parts of the epidermis adhered to the dermis (rejection suppressed) [4]	immunosuppressive activity (amount of [3H]-thymidine uptake) [5]
32 mg/L	38 mg/L	CCCCCCCCCCCCCC(=O)OCC(CO[C@H]1O[C@H](CS(=O)(=O)O)[C@@H](O)[C@H](O)[C@H]1O)OC(=O)CCCCCCCCCCCCC (mixture of isomers) [SQAG 1]	1.08 µM	–	–	–
40 mg/L	40 mg/L	CCCCCCCCCCCCCC(=O)OCC(O)CO[C@H]1O[C@H](CS(=O)(=O)O)[C@@H](O)[C@H](O)[C@H]1O (mixture of isomers) [SQAG 2]	8.51 µM	–	–	–
40 mg/L	31 mg/L	CCCCCCCCCCCCCCCC(=O)OCC(O)CO[C@H]1O[C@H](CS(=O)(=O)O)[C@@H](O)[C@H](O)[C@H]1O (mixture of isomers) [SQAG 4]	6.29 µM	–	–	–
–	–	CCCCCCCCCCCCCCCCCC(=O)OCC(CO[C@H]1O[C@H](CS(=O)(=O)O)[C@@H](O)[C@H](O)[C@H]1O)OC(=O)CCCCCCCCCCCCCCCCC (mixture of isomers) [SQAG 5]	0.352 µM	–	–	–
37.5 mg/L	30 mg/L	CCCCCCCCCCCCCCCCCC(=O)OCC(O)CO[C@H]1O[C@H](CS(=O)(=O)O)[C@@H](O)[C@H](O)[C@H]1O (mixture of isomers) [SQAG 6]	4.1 µM	–	–	–
–	–	CCCCCCCCCCCCCCCC(=O)OCC(CO[C@@H]1O[C@H](CS(=O)(=O)O)[C@@H](O)[C@H](O)[C@H]1O)OC(=O)CCCCCCCCCCCCCCC (mixture of isomers) [SQAG 7]	0.377 µM	–	–	–
50 mg/L	42 mg/L	CCCCCCCCCCCCCCCC(=O)OCC(O)CO[C@@H]1O[C@H](CS(=O)(=O)O)[C@@H](O)[C@H](O)[C@H]1O (mixture of isomers) [SQAG 8]	7.19 µM	–	–	–
–	–	CCCCCCCCCCCCCCCCCC(=O)OCC(CO[C@@H]1O[C@H](CS(=O)(=O)O)[C@@H](O)[C@H](O)[C@H]1O)OC(=O)CCCCCCCCCCCCCCCCC (mixture of isomers) [SQAG 9]	0.352 µM	three out of five rats	remaining two rats	considerably higher immunosuppressive activity than other compounds
–	–	CCCCCCCCCCCCCCCCCC(=O)OCC(O)CO[C@@H]1O[C@H](CS(=O)(=O)O)[C@@H](O)[C@H](O)[C@H]1O (mixture of isomers) [SQAG 10]	5.13 µM	–	–	–
24 mg/L	28 mg/L	CCCCCCCCCCCCCCCCCCCC(=O)OCC(O)CO[C@H]1O[C@H](CS(=O)(=O)O)[C@@H](O)[C@H](O)[C@H]1O (mixture of isomers) [SQAG 11]	1.96 µM	–	–	–
23 mg/L	20 mg/L	CCCCCCCCCCCCCCCCCCCCCC(=O)OCC(O)CO[C@H]1O[C@H](CS(=O)(=O)O)[C@@H](O)[C@H](O)[C@H]1O (mixture of isomers) [SQAG 12]	1.56 µM	–	–	–
20 mg/L	20 mg/L	CCCCCCCCCCCCCCCCCCCCCCCC(=O)OCC(O)CO[C@H]1O[C@H](CS(=O)(=O)O)[C@@H](O)[C@H](O)[C@H]1O (mixture of isomers) [SQAG 13]	1.49 µM	–	–	–
20 mg/L	18 mg/L	CCCCCCCCCCCCCCCCCCCCCCCCCC(=O)OCC(O)CO[C@H]1O[C@H](CS(=O)(=O)O)[C@@H](O)[C@H](O)[C@H]1O (mixture of isomers) [SQAG 14]	1.43 µM	–	–	–
–	–	CCCCCCCCCCCCCCCC(=O)OCC(CO[C@H]1O[C@H](CS(=O)(=O)O)[C@@H](O)[C@H](O)[C@H]1O)OC(=O)CCCCCCCCCCCCCCC (some centres unmarked) [SQAG 3]	0.503 µM	–	–	–
